This is an account of results in patent publication US9796733B2, “Imidazo-pyrazine derivatives useful as soluble guanylate cyclase activators” (Merck Sharp & Dohme Corp., priority 2014, dated 2017).

Each structure is given as a SMILES string.

This assay concerns the target T1, sGC α1/β1 heterodimer (Homo sapiens, UniProt Q02108+Q02153).
T1 construct: expressed in transfected cells; host or cells: CHO-K1 (clone #7, CHO-K1/sGC)
T1 sequence (Q02108 1-690): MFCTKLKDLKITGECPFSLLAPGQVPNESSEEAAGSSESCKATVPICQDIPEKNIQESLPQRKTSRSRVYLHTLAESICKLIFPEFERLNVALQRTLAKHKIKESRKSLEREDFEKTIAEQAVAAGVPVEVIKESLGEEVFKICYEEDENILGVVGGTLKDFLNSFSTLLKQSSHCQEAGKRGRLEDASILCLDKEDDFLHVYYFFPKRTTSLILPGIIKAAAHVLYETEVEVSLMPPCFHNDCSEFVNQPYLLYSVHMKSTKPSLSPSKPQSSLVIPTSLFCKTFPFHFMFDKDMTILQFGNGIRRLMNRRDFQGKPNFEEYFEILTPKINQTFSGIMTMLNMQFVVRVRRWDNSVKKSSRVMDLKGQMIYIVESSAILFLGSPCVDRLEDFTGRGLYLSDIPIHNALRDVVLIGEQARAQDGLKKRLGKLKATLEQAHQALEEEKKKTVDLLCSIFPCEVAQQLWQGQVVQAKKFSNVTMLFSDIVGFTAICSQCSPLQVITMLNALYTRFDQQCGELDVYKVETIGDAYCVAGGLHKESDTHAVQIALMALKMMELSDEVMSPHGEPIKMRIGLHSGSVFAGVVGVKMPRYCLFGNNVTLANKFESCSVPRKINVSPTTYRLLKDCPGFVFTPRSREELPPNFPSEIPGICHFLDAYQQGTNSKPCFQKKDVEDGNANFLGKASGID
T1 sequence (Q02153 1-619): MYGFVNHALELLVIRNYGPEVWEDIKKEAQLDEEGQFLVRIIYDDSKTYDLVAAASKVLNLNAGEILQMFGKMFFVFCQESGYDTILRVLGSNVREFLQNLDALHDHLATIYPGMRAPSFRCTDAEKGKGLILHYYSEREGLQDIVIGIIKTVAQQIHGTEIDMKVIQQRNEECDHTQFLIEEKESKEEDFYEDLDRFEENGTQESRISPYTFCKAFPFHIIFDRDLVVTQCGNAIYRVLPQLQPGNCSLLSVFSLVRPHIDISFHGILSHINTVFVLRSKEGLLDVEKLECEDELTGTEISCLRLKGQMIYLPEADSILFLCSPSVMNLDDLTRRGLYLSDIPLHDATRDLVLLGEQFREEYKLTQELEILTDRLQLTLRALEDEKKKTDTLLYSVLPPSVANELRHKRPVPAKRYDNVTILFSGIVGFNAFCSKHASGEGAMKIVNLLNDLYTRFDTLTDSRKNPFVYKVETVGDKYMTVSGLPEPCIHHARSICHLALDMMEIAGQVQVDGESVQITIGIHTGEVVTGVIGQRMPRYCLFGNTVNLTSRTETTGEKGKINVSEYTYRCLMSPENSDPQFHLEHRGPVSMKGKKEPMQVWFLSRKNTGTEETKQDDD
Kind of assay: Cell-based sGC functional assay (CASA assay): cGMP generation in CHO-K1/sGC cells, HTRF detection. Particulars: for Emax: CHO-K1, percent activation relative to standard Compound A in CHO-K1/sGC cells, read-out: % Act.; for EC50: inflection point (IP) of cGMP generation in CHO-K1/sGC cells, 4P fit, activity expressed as percentage of Compound A. The essentials: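 cGMP was quantified by HTRF after 1 hr, 37° C exposure of thawed CHO-K1 cells expressing sGC α1/β1 to compound, with or without 1 μM DETA-NO. IBMX (0.5 mM) blocked cGMP breakdown, and DMSO was 2.5% final. Percent of standard Compound A's maximal cGMP was fitted (4P) for inflection point.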
On the technique in general: In TR-FRET formats the signal depends on donor and acceptor labels being close together.

Usually EC50 stands for the concentration needed to bring the measured effect to its halfway point. As for `Cc1cnc(C2(C3CC3)C(=O)Nc3nc(-c4cn5ccnc5c(CCCC(F)(F)F)n4)nc(N)c32)cn1` (single isomer, unassigned) [Example 357B, 4-amino-5-cyclopropyl-5-(5-methylpyrazin-2-yl)-2-(8-(4,4,4-trifluorobutyl)imidazo[1,2-a]pyrazin-6-yl)-5H-pyrrolo[2,3-d]pyrimidin-6(7H)-one], the Emax is 113% and the concentration for a half-maximal effect (EC50) amounted to 0.68 µM.
Regarding `CCCCc1nc(-c2nc(N)c3c(n2)NC(=O)C3(c2ccc(Cl)cc2)C2CCC2)cn2ccnc12` (single isomer, unassigned) [Example 358B, 4-amino-2-(8-butylimidazo[1,2-a]pyrazin-6-yl)-5-(4-chlorophenyl)-5-cyclobutyl-5H-pyrrolo[2,3-d]pyrimidin-6(7H)-one], the Emax stood at 120% and the EC50 came to 0.02 µM.
For the compound `Nc1nc(-c2cn3ccnc3c(CCC(F)(F)C(F)(F)F)n2)nc2c1C(c1cccnc1)(C1CC1)C(=O)N2` (single isomer, unassigned) [Example 359B, 4-amino-5-cyclopropyl-2-(8-(3,3,4,4,4-pentafluorobutyl)imidazo[1,2-a]pyrazin-6-yl)-5-(pyridin-3-yl)-5H-pyrrolo[2,3-d]pyrimidin-6(7H)-one], the Emax worked out at 108% and the EC50 worked out at 0.302 µM.
The matching figures for `CCCCc1nc(-c2nc(N)c3c(n2)NC(=O)C3(c2ccc(F)cc2)C2CCC2)cn2ccnc12` (single isomer, unassigned) [Example 361B, 4-amino-2-(8-butylimidazo[1,2-a]pyrazin-6-yl)5-cyclobutyl-5-(4-fluorophenyl)-5H-pyrrolo[2,3-d]pyrimidin-6(7H)-one]: 157% and 0.047 µM.
The matching figures for `Cc1nc(C2(C3CC3)C(=O)Nc3nc(-c4cn5ccnc5c(CCCC(F)(F)F)n4)nc(N)c32)ccc1F` (single isomer, unassigned) [Example 362B, 4-amino-5-cyclopropyl-5-(5-fluoro-6-methylpyridin-2-yl)-2-(8-(4,4,4-trifluorobutyl)imidazo[1,2-a]pyrazin-6-yl)-5H-pyrrolo[2,3-d]pyrimidin-6(7H)-one]: 140% and 0.384 µM.
For `Cc1nc(C2(C3CC3)C(=O)Nc3nc(-c4cn5ccnc5c(CCC(F)(F)C(F)(F)F)n4)nc(N)c32)ccc1F` (single isomer, unassigned) [Example 363B, 4-amino-5-cyclopropyl-5-(5-fluoro-6-methylpyridin-2-yl)-2-(8-(3,3,4,4,4-pentafluorobutyl)imidazo[1,2-a]pyrazin-6-yl)-5H-pyrrolo[2,3-d]pyrimidin-6(7H)-one], the Emax was determined as 186% and the EC50 is 0.244 µM.
As for `Cc1cc(Cl)cnc1C1(C2CC2)C(=O)Nc2nc(-c3cn4ccnc4c(CCCC(F)(F)F)n3)nc(N)c21` (single isomer, unassigned) [Example 364A, 4-amino-5-(5-chloro-3-methylpyridin-2-yl)-5-cyclopropyl-2-(8-(4,4,4-trifluorobutyl)imidazo[1,2-a]pyrazin-6-yl)-5H-pyrrolo[2,3-d]pyrimidin-6(7H)-one], the Emax was 138% and a half-maximal response (EC50) required 0.273 µM.
Regarding `Cc1cncc(C2(C3CC3)C(=O)Nc3nc(-c4cn5ccnc5c(CCCC(F)(F)F)n4)nc(N)c32)n1` (single isomer, unassigned) [Example 365B, 4-amino-5-cyclopropyl-5-(6-methylpyrazin-2-yl)-2-(8-(4,4,4-trifluorobutyl)imidazo[1,2-a]pyrazin-6-yl)-5H-pyrrolo[2,3-d]pyrimidin-6(7H)-one], the Emax turned out to be 108% and the EC50 was found to be 0.704 µM.
On to `Cc1cncc(C2(C3CC3)C(=O)Nc3nc(-c4cn5ccnc5c(CCC(F)(F)C(F)(F)F)n4)nc(N)c32)n1` (single isomer, unassigned) [Example 366B, 4-amino-5-cyclopropyl-5-(6-methylpyrazin-2-yl)-2-(8-(3,3,4,4,4-pentafluorobutyl)imidazo[1,2-a]pyrazin-6-yl)-5H-pyrrolo[2,3-d]pyrimidin-6(7H)-one], for which the Emax stood at 122% and the EC50 amounted to 0.843 µM.
Consider `CCCCc1nc(-c2nc(N)c3c(n2)NC(=O)C3(c2cc(C(F)(F)F)ccn2)C2CC2)cn2ccnc12` (single isomer, unassigned) [Example 367B, 4-amino-2-(8-butylimidazo[1,2-a]pyrazin-6-yl)-5-cyclopropyl-5-(4-(trifluoromethyl)pyridin-2-yl)-5H-pyrrolo[2,3-d]pyrimidin-6(7H)-one], for which the Emax is 170% and the EC50 was 0.155 µM.
The matching figures for `Nc1nc(-c2cn3ccnc3c(CCCC(F)(F)F)n2)nc2c1C(c1cccc(C(F)(F)F)n1)(C1CC1)C(=O)N2` (single isomer, unassigned) [Example 368B, 4-amino-5-cyclopropyl-2-(8-(4,4,4-trifluorobutyl)imidazo[1,2-a]pyrazin-6-yl)-5-(6-(trifluoromethyl)pyridin-2-yl)-5H-pyrrolo[2,3-d]pyrimidin-6(7H)-one]: 151% and 0.148 µM.
Turning to `Nc1nc(-c2cn3ccnc3c(CCCC(F)(F)F)n2)nc2c1C(c1ncc(C(F)(F)F)cc1Cl)(C1CC1)C(=O)N2` (single isomer, unassigned) [Example 370B, 4-amino-5-(3-chloro-5-(trifluoromethyl)pyridin-2-yl)-5-cyclopropyl-2-(8-(4,4,4-trifluorobutyl)imidazo[1,2-a]pyrazin-6-yl)-5H-pyrrolo[2,3-d]pyrimidin-6(7H)-one], the Emax came to 99% and the EC50 worked out at 0.262 µM.
As to `Nc1nc(-c2cn3ccnc3c(CCCC(F)(F)F)n2)nc2c1C(c1ncc(Cl)cc1F)(C1CC1)C(=O)N2` (single isomer, unassigned) [Example 371A, 4-amino-5-(5-chloro-3-fluoropyridin-2-yl)-5-cyclopropyl-2-(8-(4,4,4-trifluorobutyl)imidazo[1,2-a]pyrazin-6-yl)-5H-pyrrolo[2,3-d]pyrimidin-6(7H)-one], the Emax was found to be 82% and the response was half-maximal at 0.194 µM (EC50).
For `Cc1cc(F)cnc1C1(C2CC2)C(=O)Nc2nc(-c3cn4ccnc4c(CCC(F)(F)C(F)(F)F)n3)nc(N)c21` (single isomer, unassigned) [Example 375B, 4-amino-5-cyclopropyl-5-(5-fluoro-3-methylpyridin-2-yl)-2-(8-(3,3,4,4,4-pentafluorobutyl)imidazo[1,2-a]pyrazin-6-yl)-5H-pyrrolo[2,3-d]pyrimidin-6(7H)-one] the same measures were 41% and 0.931 µM.
For `Cc1cc(C2(C3CC3)C(=O)Nc3nc(-c4cn5ccnc5c(CCC(F)(F)C(F)(F)F)n4)nc(N)c32)ncc1F` (single isomer, unassigned) [Example 376B, 4-amino-5-cyclopropyl-5-(5-fluoro-4-methylpyridin-2-yl)-2-(8-(3,3,4,4,4-pentafluorobutyl)imidazo[1,2-a]pyrazin-6-yl)-5H-pyrrolo[2,3-d]pyrimidin-6(7H)-one], the Emax was found to be 127% and the EC50 was 0.18 µM.
The matching figures for `Cc1nc(C2(C3CC3)C(=O)Nc3nc(-c4cn5ccnc5c(CCCC(F)(F)F)n4)nc(N)c32)ccc1Cl` (single isomer, unassigned) [Example 377B]: 90% and 0.086 µM.
The matching figures for `CC(F)(F)c1ccc(C2(C)C(=O)Nc3nc(-c4cn5ccnc5c(CCC(F)(F)C(F)(F)F)n4)nc(N)c32)cn1` (single isomer, unassigned) [Example 379A, 4-amino-5-(6-(1,1-difluoroethyl)pyridin-3-yl)-5-methyl-2-(8-(3,3,4,4,4-pentafluorobutyl)imidazo[1,2-a]pyrazin-6-yl)-5H-pyrrolo[2,3-d]pyrimidin-6(7H)-one]: 87% and 0.152 µM.
